From patent US11660309B2, “Prevention and treatment of inflammatory conditions” (GRI BIO, INC., priority 2011, dated 2023)
Entries after “also recorded” stand apart in the source; their conditions may differ.

Tests used:
type I NKT cells [1] = assay: In vitro αGalCer-stimulated proliferation of splenic type I NKT cells ([3H]-thymidine incorporation); format: cell-based, naïve B6 mice; settings: for type I NKT cell proliferation at optimal concentration of RAR agonist: Example 15, αGalCer 10 ng/ml, comparison among ATRA, Tretinoin, AM580, AC55649, CD1530
Protocol: Retinoic acid receptors (RARs) comprise three major subtypes: RARα, RAR β, and RARγ. The RAR agonist ATRA is not selective for a specific subtype. The contribution of RAR subtypes to inhibition of type I NKT cell activity was tested with subtype-selective RAR agonists as follows. Splenic cells were isolated from naïve B6 (WT) mice and cultured in vitro in the presence of [^3H]-thymidine, an optimal concentration of αGalCer, and graded concentrations of the pan-RAR agonist ATRA, the RARα agonist AM580, the RAR β 2 agonist AC55649 or the RARγ agonist CD1530. Proliferation of the type I NKT cells in response to αGalCer stimulation was measured by [^3H]-thymidine incorporation. […]
In vitro proliferation and cytokine release assays were performed on freshly isolated splenocytes and type I NKT cell hybridomas (1.2 Hyb). The cells were cultured in the presence of [3H]-thymidine and an optimal concentration of αGalCer (10 ng/ml) with titrating concentrations of ATRA, Tretinoin, the RARα agonist AM580, the RAR β agonist AC55649 or the RARγ agonist CD1530. Proliferation of the type I NKT cells in response to αGalCer stimulation was quantified by [^3H]-thymidine incorporation. IL-2 levels were measured using IL-2 sandwich ELISA. Optimal concentrations of the RAR agonists was determined. […]

type I NKT cells (Hy1.2) = assay: IL-2 secretion by type I NKT cell hybridoma (Hy1.2) with APCs and αGalCer (IL-2 sandwich ELISA); format: cell-based
Protocol: The affect of ATRA on IL-2 cytokine secretion by a type I NKT cells in response to an in vitro challenge with αGalCer was tested by co-culturing NKT cells (Hy1.2) and irradiated antigen-presenting cells (APCs) in vitro with an optimal concentration of αGalCer in the presence or absence of ATRA (0.15 μg/ml, 1.2 μg/ml, or 18.8 μg/ml) for a period of 16 hours. Supernatants were collected and secreted IL-2 levels were measured using IL-2 sandwich ELISA.
In vitro proliferation and cytokine release assays were performed on freshly isolated splenocytes and type I NKT cell hybridomas (1.2 Hyb). The cells were cultured in the presence of [3H]-thymidine and an optimal concentration of αGalCer (10 ng/ml) with titrating concentrations of ATRA, Tretinoin, the RARα agonist AM580, the RAR β agonist AC55649 or the RARγ agonist CD1530. Proliferation of the type I NKT cells in response to αGalCer stimulation was quantified by [^3H]-thymidine incorporation. IL-2 levels were measured using IL-2 sandwich ELISA. Optimal concentrations of the RAR agonists was determined.
In vitro proliferation and cytokine release assays were performed on freshly isolated splenocytes and type I NKT cell hybridomas (1.2 Hyb). The cells were cultured in the presence of [^3H]-thymidine and an optimal concentration of αGalCer (10 ng/ml) with increasing concentrations of ATRA or Tazarotene. Proliferation of the type I NKT cells in response to αGalCer stimulation was quantified by [H]-thymidine incorporation. IL-2 levels were measured using IL-2 sandwich ELISA.

type I NKT cells [2] = assay: Ex vivo proliferation and cytokine response to αGalCer of type I NKT cells from RAR agonist injected mice; format: in vivo; settings: for proliferative response of splenic type I NKT cells to αGalCer stimulation: Example 17, cells from mice injected i.p. 15 mg/kg daily for 5 days, vs vehicle (DMSO)
Protocol: Functional changes in type I NKT cells following ATRA administration were further tested. In two independent experiments, groups of Black 6 (WT) mice were injected intraperitoneally with 0.3 mg/animal (˜15 mg/Kg body weight) ATRA or vehicle (DMSO) daily for a period of 5 days. Type I NKT cells were purified and cultured in vitro with increasing concentrations of αGalCer. Cell proliferation was measured and supernatants were collected. The cytokine response of the isolated type I NKT after in vitro challenge with αGalCer was determined by sandwich ELISA for IFN-γ, IL-4, IL-6, IL-10, IL-12, and IL-13. […] No secretion of IFN-γ, IL-6, IL-10, IL-12, or IL-13 in response to αGalCer stimulation was detected from type I NKT cells isolated from ATRA injected mice.
(§1) Functional changes in type I NKT cells following in vivo administration of Tazarotene or ATRA was tested. Groups of mice were injected intraperitoneally with […] (15 mg/kg), 300 μg Tazarotene (15 mg/kg) or vehicle (DMSO) daily for a period of 5 days. Splenic Type I NKT cells were purified and cultured in vitro with increasing concentrations of αGalCer. Cell proliferation was measured by quantification of [^3H]-thymidine incorporation and the results are shown at FIG. 17.

liver type I NKT cells = assay: Flow cytometry count of liver type I NKT cells (αGalCer/CD1d-tetramer/TCRβ) after in vivo administration; settings: mice injected i.p. 15 mg/kg daily for 5 days
Protocol: as §1
Mononuclear cells were isolated from livers of mice injected with either ATRA, Tazarotene or vehicle (DMSO) and stained with αGalCer/CD1d-tetramer and a pan anti-TCRβ antibodies. Flowcytometry was performed and the population of αGalCer/CD1d-tetramer/TCRβ expressing cells (type I NKT cells) was quantified as shown in FIG. 18.

[3] = tested on: alcohol-induced liver injury; assay: Alcohol-induced liver injury, chronic plus binge ethanol feeding: serum ALT and liver histology; format: in vivo, B6 (WT) male mice
Excerpt: Following acclimatization with nutritionally adequate Lieber-DeCarli liquid diet for a week, 6-8 week old male C57BL/6J mice (B6) and Jα18−/− mice, which lack type I NKT cells but not type 2 NKT cells, were given free access to a liquid diet containing 5% ethanol or an isocaloric dextrin maltose-containing diet (Bio-Serv, NJ). Precautions were taken to prepare the diet fresh every day using autoclaved water in sterilized feeders, changing feed daily.
B6 and Jα18−/− mice receiving the ethanol-containing diet were separated into two groups, the chronic ethanol feeding group and the chronic plus binge ethanol feeding group. Mice in the chronic ethanol feeding group were fed liquid diet containing 5% ethanol for up to 4-5 weeks. Mice in the chronic plus binge ethanol feeding group were fed liquid diet containing 5% ethanol for 10 days followed by (on day 11) a single high dose of gavaged ethanol (5 g/kg body weight). Mice in the control group were gavaged with isocaloric dextrin maltose. Following gavage, mice were kept on a temperature controlled warm pad and monitored. Though initially slow moving, most mice receiving the high dose of gavaged ethanol regained normal behavior within hours. Mice were euthanized 8-9 hr after gavage. […]
Serum ALT levels were determined for each group of mice. […]

[4] = tested on: MBPAc1-9-reactive CD4+ T cells; assay: Proliferation of MBPAc1-9-reactive CD4+ T cells ([3H]-thymidine incorporation); format: cell-based, naïve B10.PL VB8.2 TCR transgenic mice; settings: ATRA 0.15, 1.2, 18.8 μg/ml
Protocol: The effect of ATRA on class II MHC-restricted conventional CD4 T Cells was tested by isolating myelin basic protein MBPAc1-9-reactive CD4+ T cells from naïve B10.PL VB8.2 TCR transgenic mice and culturing the cells in vitro with [^3H]-thymidine and an optimal concentration of MBPAc1-9 in the presence or absence of graded concentrations of ATRA (0.15, 1.2, 18.8 μg/ml). Proliferation of the MBPAc1-9-reactive CD4+ T cells was measured by [^3H]-thymidine incorporation.

[5] = tested on: Type I NKT hybridoma cells (Hy1.2); assay: IL-2 secretion by Hy1.2 cells pretreated with ATRA in the absence of antigen-presenting cells; format: cell-based; settings: Hy1.2 pretreated 24 hr with 5, 10 or 20 μg/ml ATRA, washed, then APCs + graded αGalCer, 16 hour
Protocol: The effect of ATRA treatment on type I NKT cells in the absence of antigen-presenting cells was also measured. Type I NKT hybridoma cells (Hy1.2) were cultured in vitro either without ATRA or with 5 μg/ml, 10 μg/ml, or 20 μg/ml ATRA for 24 hr. The cells were then washed three times and co-cultured with irradiated splenocytes (APCs) in the presence of graded concentrations of the lipid antigen, αGalCer. Supernatants were collected 16 hour later and IL-2 levels were measured using IL-2 sandwich ELISA.

[6] = Example 16, splenocytes, αGalCer 10 ng/ml, increasing concentrations of ATRA or Tazarotene
[7] = Example 16, 1.2 Hyb, αGalCer 10 ng/ml, increasing concentrations of ATRA or Tazarotene
[8] = cells from mice injected i.p. with 0.3 mg/animal ATRA daily for 5 days

CCCCCCCCc1ccc(-c2ccc(C(=O)O)cc2)cc1 [AC55649]
type I NKT cell proliferation in response to αGalCer (type I NKT cells [1]; Example 12, 10^1 μg/ml): low or minimal proliferation | type I NKT cell proliferation in response to αGalCer (type I NKT cells [1]; Example 12, graded concentrations up to (below) 10^1 μg/ml): Reduced cell proliferation

CC1(C)CCC(C)(C)c2cc(C(=O)Nc3ccc(C(=O)O)cc3)ccc21 [AM580]
type I NKT cell proliferation in response to αGalCer (type I NKT cells [1]; Example 12, 10^1 μg/ml): proliferation was maintained

O=C(O)c1ccc(-c2ccc3cc(O)c(C45CC6CC(CC(C6)C4)C5)cc3c2)cc1 [CD1530]
type I NKT cell proliferation in response to αGalCer (type I NKT cells [1]; Example 12, 10^1 μg/ml): low or minimal proliferation | type I NKT cell proliferation at optimal concentration of RAR agonist (type I NKT cells [1]): lowest levels of proliferation | IL-2 secretion at optimal concentration of RAR agonist (type I NKT cells (Hy1.2); Example 15, 1.2 Hyb, αGalCer 10 ng/ml, comparison among RAR agonists): lowest levels of IL-2 secretion

Tazarotene
type I NKT cell proliferation (type I NKT cells [1]; [6]): achieves its inhibitory effects at lower concentrations; also recorded: better inhibition of type I NKT cells than ATRA | IL-2 secretion (type I NKT cells (Hy1.2); [7]): achieves its inhibitory effects at lower concentrations | proliferative response of splenic type I NKT cells to αGalCer stimulation (type I NKT cells [2]): lowest levels of proliferation | numbers of type I NKT cells in the livers vs control (liver type I NKT cells): no significant difference

CC1=C(/C=C/C(C)=C/C=C/C(C)=C/C(=O)O)C(C)(C)CCC1 [ATRA, all trans retinoic acid]
protection from liver damage following excess alcohol consumption (summary of FIGS. 6 and 7) [3]: significantly inhibits liver damage | liver histology for hepatic steatohepatitis (fatty liver disease) ([3]; B6 mice, sulfatide or ATRA injected): little sign of fatty liver disease; also recorded: appears relatively normal | αGalCer-induced type I NKT cell proliferation compared with αGalCer alone (type I NKT cells [1]; 0.15 μg/ml ATRA + αGalCer): similar | αGalCer-induced type I NKT cell proliferation compared with αGalCer alone (type I NKT cells [1]; 1.2 μg/ml ATRA + αGalCer): reduced | αGalCer-induced type I NKT cell proliferation compared with αGalCer alone (type I NKT cells [1]; 18.8 μg/ml ATRA + αGalCer): greatest inhibition | type I NKT cell proliferation (type I NKT cells [1]; ATRA alone, no αGalCer): No or minimal proliferation | type I NKT cell proliferation in response to αGalCer (type I NKT cells [1]; Example 12, 10^1 μg/ml): low or minimal proliferation | type I NKT cell proliferation in response to αGalCer (type I NKT cells [1]; Example 14, 10^1 μg/ml): no or minimal proliferation | type I NKT cell proliferation at optimal concentration of RAR agonist (type I NKT cells [1]): lowest levels of proliferation | type I NKT cell proliferation (type I NKT cells [1]; [6]): inhibit | IL-2 secretion (type I NKT cells (Hy1.2); 0.15 μg/ml ATRA, αGalCer, irradiated APCs, 16 hours): not significantly affected | IL-2 secretion (type I NKT cells (Hy1.2); 1.2 μg/ml ATRA, αGalCer, irradiated APCs, 16 hours): significant reductions | IL-2 secretion (type I NKT cells (Hy1.2); 18.8 μg/ml ATRA, αGalCer, irradiated APCs, 16 hours): greatest reduction | IL-2 secretion (type I NKT cells (Hy1.2); [7]): inhibit | proliferative response of splenic type I NKT cells to αGalCer stimulation (type I NKT cells [2]): inhibits type I NKT cell activity | proliferation of type I NKT cells in response to αGalCer stimulation (type I NKT cells [2]; cells from WT mice injected i.p. with 0.3 mg/animal ATRA daily for 5 days): did not proliferate | IFN-γ secretion in response to αGalCer stimulation (type I NKT cells [2]; [8]): No secretion | IL-4 secretion in response to αGalCer stimulation (type I NKT cells [2]; [8]): Reduced levels | IL-6 secretion in response to αGalCer stimulation (type I NKT cells [2]; [8]): No secretion | IL-10 secretion in response to αGalCer stimulation (type I NKT cells [2]; [8]): No secretion | IL-12 secretion in response to αGalCer stimulation (type I NKT cells [2]; [8]): No secretion | IL-13 secretion in response to αGalCer stimulation (type I NKT cells [2]; [8]): No secretion | MBPAc1-9-stimulated proliferation of CD4+ T cells [4]: No inhibition; also recorded: does not directly inhibit | IL-2 secretion [5]: inhibits IL-2 secretion | numbers of type I NKT cells in the livers vs control (liver type I NKT cells): no significant difference
